The target of one test is Bcl-2 (Homo sapiens (Human), UniProt P10415). The test is described as follows: Bcl-2 competition binding (fluorescence polarization) assay. Conditions: fluorescein labeled BH3 peptide 15 nM, Bcl-2 protein 30 nM, 3 hours of incubation at room temperature. A digest of the protocol:
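Fluorescence polarization competition of 15 nM labeled 23-mer BH3 peptide with 30 nM purified Bcl-2, in 20 mM Hepes pH 7.0, 50 mM KCl, 5 mM MgCl2, 20 mM Na2MoO4, 0.1 mg/ml bovine gamma globulin, 0.01% NP40. Compounds 20 μM to 2 nM final; mP read after 3 h at room temperature, background-subtracted. IC50 from sigmoidal dose-response fit.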
On the technique in general: Polarisation of emitted light reports the rotation of a fluorescent probe.

The subject of test [1] is BCL-2-dependent acute lymphoblastic leukemia (ALL) cell line RS4; 11 with G101V mutation. The test is described as follows: In vitro anti-proliferation assay (ATPlite) in RS4; 11 with G101V mutation. Conditions: about 72 hours incubation, medium with 5% FBS or 10% normal human serum, ATPlite luminescence. Type of test: cell-based. As for the experimental part: Cell antiproliferation was assayed by PerkinElmer ATPlite™ Luminescence Assay System. Briefly, the various test cancer cell lines were plated at a density of about 1×10^4 cells per well in Costar 96-well plates, and were incubated with different concentrations of compounds for about 72 hours in medium supplemented with 5% FBS or 10% normal human serum (NHS). One lyophilized substrate solution vial was then reconstituted by adding 5 mL of substrate buffer solution, and was agitated gently until the solution was homogeneous. About 50 μL of mammalian cell lysis solution was added to 100 μL of cell suspension per well of a microplate, and the plate was shaken for about five minutes in an orbital shaker at ˜700 rpm. This procedure was used to lyse the cells and to stabilize the ATP. Next, 50 μL substrate solution was added to the wells and microplate was shaken for five minutes in an orbital shaker at ˜700 rpm. Finally, the luminescence was measured by a PerkinElmer TopCount® Microplate Scintillation Counter. Such assays, carried out with a range of doses of test compounds, allowed the determination of the cellular anti-antiproliferative IC50 of the compounds of the present invention.
A general note: Cellular ATP, detected with luciferase, serves as a proxy for viable cell number.

The values below come from patent US20240166646A1, “1H-PYRROLO[2,3-B]PYRIDINE DERIVATIVES AS BCL-2 INHIBITORS FOR THE TREATMENT OF NEOPLASTIC AND AUTOIMMUNE DISEASES” (Newave Pharmaceutical Inc., priority 2020, published 2024).

Where a name gives a salt, the structure may show the parent alone.

By IC50 is commonly meant the concentration that inhibits the measured activity by half.

Chain of Bcl-2 (P10415 whole entry): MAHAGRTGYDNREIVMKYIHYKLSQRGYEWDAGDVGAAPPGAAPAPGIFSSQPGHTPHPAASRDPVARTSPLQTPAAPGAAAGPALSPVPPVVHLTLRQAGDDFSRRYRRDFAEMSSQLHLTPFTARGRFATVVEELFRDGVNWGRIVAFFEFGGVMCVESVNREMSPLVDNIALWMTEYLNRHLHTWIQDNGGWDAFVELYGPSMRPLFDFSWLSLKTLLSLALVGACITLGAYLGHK

For the compound `COC1(C)CCC(CNc2ccc(S(=O)(=O)NC(=O)c3ccc(N4CCC5(CC4)CC(N4CCC[C@H]4c4ccccc4C(C)C)C5)cc3N3c4cc5cc[nH]c5nc4O[C@@H]4COC[C@H]43)cc2[N+](=O)[O-])CC1` (stereo partly drawn) [Example 36, 4-(2-((S)-2-(2-isopropylphenyl)pyrrolidin-1-yl)-7-azaspiro[3.5]nonan-7-yl)-N-((4-((((1r,4r)-4-methoxy-4-methylcyclohexyl)methyl)amino)-3-nitrophenyl)sulfonyl)-2-((5aR,8aS)-5a,6,8,8a-tetrahydrofuro[3,4-b]pyrrolo[3′,2′:5,6]pyrido[3,2-e][1,4]oxazin-5(1H)-yl)benzamide hydrochloride], the IC50 stood at 0.31 nM at Bcl-2 and 56.4 nM in test [1].
The corresponding values for `CO[C@]1(C)CC[C@H](CNc2ccc(S(=O)(=O)NC(=O)c3ccc(N4CCC5(CC4)CC(N4CCC[C@H]4c4ccccc4C(C)C)C5)cc3N3c4cc5cc[nH]c5nc4O[C@@H]4COC[C@H]43)cc2[N+](=O)[O-])CC1` [Example 37, 4-(2-((S)-2-(2-isopropylphenyl)pyrrolidin-1-yl)-7-azaspiro[3.5]nonan-7-yl)-N-((4-((((1s,4s)-4-methoxy-4-methylcyclohexyl)methyl)amino)-3-nitrophenyl)sulfonyl)-2-((5aR,8aS)-5a,6,8,8a-tetrahydrofuro[3,4-b]pyrrolo[3′,2′:5,6]pyrido[3,2-e][1,4]oxazin-5(1H)-yl)benzamide hydrochloride] are 0.358 nM and 15.2 nM.
For `Cc1ccccc1[C@@H]1CCCN1C1CC2(CCN(c3ccc(C(=O)NS(=O)(=O)c4ccc(NCC5(F)CCOCC5)c([N+](=O)[O-])c4)c(N4c5cc6cc[nH]c6nc5O[C@@H]5COC[C@H]54)c3)CC2)C1` [Example 38, N-((4-(((4-fluorotetrahydro-2H-pyran-4-yl)methyl)amino)-3-nitrophenyl)sulfonyl)-2-((5aR,8aS)-5a,6,8,8a-tetrahydrofuro[3,4-b]pyrrolo[3′,2′:5,6]pyrido[3,2-e][1,4]oxazin-5(1H)-yl)-4-(2-((S)-2-(o-tolyl)pyrrolidin-1-yl)-7-azaspiro[3.5]nonan-7-yl)benzamide], the IC50 at Bcl-2 amounted to 0.202 nM; in test [1] (RS4-11), 13.6 nM.
The corresponding values for `Cc1ccccc1[C@@H]1CCCN1C1CC2(CCN(c3ccc(C(=O)NS(=O)(=O)c4ccc(NC[C@H]5COCCO5)c([N+](=O)[O-])c4)c(N4c5cc6cc[nH]c6nc5O[C@@H]5COC[C@H]54)c3)CC2)C1` [Example 39, N-((4-((((S)-1,4-dioxan-2-yl)methyl)amino)-3-nitrophenyl)sulfonyl)-2-((5aR,8aS)-5a,6,8,8a-tetrahydrofuro[3,4-b]pyrrolo[3′,2′:5,6]pyrido[3,2-e][1,4]oxazin-5(1H)-yl)-4-(2-((S)-2-(o-tolyl)pyrrolidin-1-yl)-7-azaspiro[3.5]nonan-7-yl)benzamide] are 0.19 nM and 49.2 nM.
For the compound `Cc1ccccc1[C@@H]1CCCN1C1CC2(CCN(c3ccc(C(=O)NS(=O)(=O)c4ccc(NCC5CCC(C)(O)CC5)c([N+](=O)[O-])c4)c(N4c5cc6cc[nH]c6nc5O[C@@H]5COC[C@H]54)c3)CC2)C1` (stereo partly drawn) [Example 40, N-((4-((((1s,4s)-4-hydroxy-4-methylcyclohexyl)methyl)amino)-3-nitrophenyl)sulfonyl)-2-((5aR,8aS)-5a,6,8,8a-tetrahydrofuro[3,4-b]pyrrolo[3′,2′:5,6]pyrido[3,2-e][1,4]oxazin-5(1H)-yl)-4-(2-((S)-2-(o-tolyl)pyrrolidin-1-yl)-7-azaspiro[3.5]nonan-7-yl)benzamide], the IC50 on Bcl-2 stood at 0.2 nM; in test [1], 34.7 nM.
With `Cc1ccccc1[C@@H]1CCCN1C1CC2(CCN(c3ccc(C(=O)NS(=O)(=O)c4ccc(NCC5CCC(C)(O)CC5)c([N+](=O)[O-])c4)c(N4c5cc6cc[nH]c6nc5O[C@@H]5COC[C@H]54)c3)CC2)C1` (stereo partly drawn) [Example 41, N-((4-((((1r,4r)-4-hydroxy-4-methylcyclohexyl)methyl)amino)-3-nitrophenyl)sulfonyl)-2-((5aR,8aS)-5a,6,8,8a-tetrahydrofuro[3,4-b]pyrrolo[3′,2′:5,6]pyrido[3,2-e][1,4]oxazin-5(1H)-yl)-4-(2-((S)-2-(o-tolyl)pyrrolidin-1-yl)-7-azaspiro[3.5]nonan-7-yl)benzamide], the figures for the IC50 (on Bcl-2; in test [1]) were 0.18 nM and 14.7 nM, respectively.
Turning to `CC(C)Oc1ccccc1[C@@H]1CCCN1C1CC2(CCN(c3ccc(C(=O)NS(=O)(=O)c4ccc(NCC5(F)CCOCC5)c([N+](=O)[O-])c4)c(N4c5cc6cc[nH]c6nc5O[C@@H]5COC[C@H]54)c3)CC2)C1` [Example 42, N-((4-(((4-fluorotetrahydro-2H-pyran-4-yl)methyl)amino)-3-nitrophenyl)sulfonyl)-4-(2-((S)-2-(2-isopropoxyphenyl)pyrrolidin-1-yl)-7-azaspiro[3.5]nonan-7-yl)-2-((5aR,8aS)-5a,6,8,8a-tetrahydrofuro[3,4-b]pyrrolo[3′,2′:5,6]pyrido[3,2-e][1,4]oxazin-5(1H)-yl)benzamide], the half-maximal inhibitory concentration (IC50) on Bcl-2 is 0.217 nM; in test [1] (RS4-11) it was 29.2 nM.
For `CC(C)Oc1ccccc1[C@@H]1CCCN1C1CC2(CCN(c3ccc(C(=O)NS(=O)(=O)c4ccc(NC[C@H]5COCCO5)c([N+](=O)[O-])c4)c(N4c5cc6cc[nH]c6nc5O[C@@H]5COC[C@H]54)c3)CC2)C1` [Example 43, N-((4-((((S)-1,4-dioxan-2-yl)methyl)amino)-3-nitrophenyl)sulfonyl)-4-(2-((S)-2-(2-isopropoxyphenyl)pyrrolidin-1-yl)-7-azaspiro[3.5]nonan-7-yl)-2-((5aR,8aS)-5a,6,8,8a-tetrahydrofuro[3,4-b]pyrrolo[3′,2′:5,6]pyrido[3,2-e][1,4]oxazin-5(1H)-yl)benzamide] the same measures were 0.28 nM and 86.4 nM.
Turning to `CC(C)Oc1ccccc1[C@@H]1CCCN1C1CC2(CCN(c3ccc(C(=O)NS(=O)(=O)c4ccc(NCC5CCC(C)(O)CC5)c([N+](=O)[O-])c4)c(N4c5cc6cc[nH]c6nc5O[C@@H]5COC[C@H]54)c3)CC2)C1` (stereo partly drawn) [Example 44, N-((4-((((1s,4s)-4-hydroxy-4-methylcyclohexyl)methyl)amino)-3-nitrophenyl)sulfonyl)-4-(2-((S)-2-(2-isopropoxyphenyl)pyrrolidin-1-yl)-7-azaspiro[3.5]nonan-7-yl)-2-((5aR,8aS)-5a,6,8,8a-tetrahydrofuro[3,4-b]pyrrolo[3′,2′:5,6]pyrido[3,2-e][1,4]oxazin-5(1H)-yl)benzamide], the IC50 was 0.179 nM on Bcl-2 and 98.3 nM in test [1].
For `CC(C)Oc1ccccc1[C@@H]1CCCN1C1CC2(CCN(c3ccc(C(=O)NS(=O)(=O)c4ccc(NCC5CCC(C)(O)CC5)c([N+](=O)[O-])c4)c(N4c5cc6cc[nH]c6nc5O[C@@H]5COC[C@H]54)c3)CC2)C1` (stereo partly drawn) [Example 45, N-((4-((((1r,4r)-4-hydroxy-4-methylcyclohexyl)methyl)amino)-3-nitrophenyl)sulfonyl)-4-(2-((S)-2-(2-isopropoxyphenyl)pyrrolidin-1-yl)-7-azaspiro[3.5]nonan-7-yl)-2-((5aR,8aS)-5a,6,8,8a-tetrahydrofuro[3,4-b]pyrrolo[3′,2′:5,6]pyrido[3,2-e][1,4]oxazin-5(1H)-yl)benzamide] the same measures were 0.198 nM and 23.8 nM.
